Results from ChEMBL document CHEMBL1201862, “PubChem BioAssay data set” (2004).
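Cells were grown in 96-well plates and exposed to each compound for 48 hours at five concentrations; endpoints were interpolated linearly between bracketing concentrations, or set to the highest concentration if not reached. Here, GI50 denotes the concentration required for 50% inhibition of growth.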 Active and inactive are the calls of the source. Rule as the data show it: active = GI50 up to about 1.1 µM and inactive = higher.

Tests used:
Experiment in all cases: NCI anticancer screen, dose series, 48 h
CCRF-CEM = tested on: CCRF-CEM
K562 = tested on: K562
LOX IMVI = tested on: LOX IMVI
NCI-H23 = tested on: NCI-H23
OVCAR-8 = tested on: OVCAR-8
PC-3 = tested on: PC-3
SF-268 = tested on: SF-268
SK-MEL-28 = tested on: SK-MEL-28
SK-MEL-2 = tested on: SK-MEL-2
SK-OV-3 = tested on: SK-OV-3
SNB-19 = tested on: SNB-19
SW-620 = tested on: SW-620
U-251 = tested on: U-251
SF-539 = tested on: SF-539

Measured: GI50

COc1cc(/C=C2\N=C(c3ccccc3)N(c3ccc(C(=O)c4ccccc4)cc3N3C(=O)/C(=C/c4cc(OC)c(OC)c(OC)c4)N=C3c3ccccc3)C2=O)cc(OC)c1OC
inactive: CCRF-CEM 5.31 µM | K562 4.86 µM | LOX IMVI 14.3 µM | NCI-H23 17.1 µM | OVCAR-8 19.9 µM | PC-3 12.6 µM | SF-268 20.3 µM | SK-MEL-28 18.7 µM | SK-MEL-2 9.77 µM | SK-OV-3 13.3 µM | SNB-19 25.6 µM | SW-620 7.57 µM | U-251 18.7 µM

CC(C)(C)[Si](C)(C)OCC1OC(n2cnc3c(N)ncnc32)CC1OS(C)(=O)=O (stereo unspecified)
inactive: CCRF-CEM > 100 µM | K562 > 100 µM | LOX IMVI > 100 µM | NCI-H23 51.1 µM | OVCAR-8 > 100 µM | PC-3 > 100 µM | SK-MEL-28 > 100 µM | SK-MEL-2 > 100 µM | SK-OV-3 > 100 µM | SNB-19 > 100 µM | SW-620 > 100 µM | U-251 > 100 µM

COC(=O)[C@@H]1C=C[C@H](NC(C)=O)C1
inactive: CCRF-CEM > 100 µM | K562 > 100 µM | LOX IMVI > 100 µM | NCI-H23 > 100 µM | OVCAR-8 > 100 µM | PC-3 > 100 µM | SK-MEL-28 > 100 µM | SK-MEL-2 > 100 µM | SK-OV-3 > 100 µM | SNB-19 > 100 µM | SW-620 > 100 µM | U-251 > 100 µM

COC(=O)c1cc(NC2OCC(OC(C)=O)C(OC(C)=O)C2OC(C)=O)nc(SC)c1C(=O)OC (stereo unspecified)
inactive: CCRF-CEM > 100 µM | LOX IMVI > 100 µM | NCI-H23 > 100 µM | OVCAR-8 > 100 µM | PC-3 > 100 µM | SF-268 > 100 µM | SF-539 > 100 µM | SK-MEL-28 > 100 µM | SK-MEL-2 > 100 µM | SNB-19 > 100 µM | SW-620 > 100 µM | U-251 > 100 µM

CN1c2ccccc2C(=O)NC12CCN(CCCC(=O)c1ccc(F)cc1)CC2
inactive: CCRF-CEM 84.7 µM | K562 25.9 µM | NCI-H23 > 100 µM | OVCAR-8 > 100 µM | PC-3 78.2 µM | SF-268 17.8 µM | SF-539 50.6 µM | SK-MEL-28 70.1 µM | SK-MEL-2 > 100 µM | SK-OV-3 > 100 µM | SW-620 50.4 µM | U-251 > 100 µM

CC1=C(C)[C@@]2(C)O[C@@]2(C)O[C@@]2(C)O[C@@]12C
inactive: K562 > 100 µM | LOX IMVI > 100 µM | NCI-H23 > 100 µM | OVCAR-8 > 100 µM | PC-3 > 100 µM | SF-268 > 100 µM | SK-MEL-28 > 100 µM | SK-MEL-2 > 100 µM | SK-OV-3 > 100 µM | SNB-19 > 100 µM | U-251 > 100 µM

C1CC2=C(C1)[Se]C(=C1Sc3nsnc3S1)[Se]2
inactive: CCRF-CEM > 100 µM | LOX IMVI > 100 µM | NCI-H23 > 100 µM | OVCAR-8 > 100 µM | PC-3 > 100 µM | SF-268 > 100 µM | SF-539 > 100 µM | SK-MEL-28 > 100 µM | SK-MEL-2 > 100 µM | SK-OV-3 > 100 µM | SNB-19 > 100 µM | SW-620 > 100 µM | U-251 > 100 µM

Cc1cc(S(=O)(=O)Nc2nc(Nc3ccccc3)n[nH]2)c(SSc2cc(Cl)c(C)cc2S(=O)(=O)Nc2nc(Nc3ccccc3)n[nH]2)cc1Cl
inactive: CCRF-CEM 43.8 µM | K562 32.6 µM | LOX IMVI > 100 µM | NCI-H23 > 100 µM | OVCAR-8 > 100 µM | PC-3 > 100 µM | SF-268 86.7 µM | SF-539 > 10 µM | SK-MEL-28 > 100 µM | SK-OV-3 > 100 µM | SNB-19 94.8 µM | SW-620 > 100 µM | U-251 61.4 µM

COC(=S)OC1CC(n2cnc3c(N)ncnc32)OC1CO[Si](C)(C)C(C)(C)C (stereo unspecified)
inactive: CCRF-CEM 10.1 µM | K562 2.75 µM | LOX IMVI 39.7 µM | NCI-H23 14 µM | OVCAR-8 24.3 µM | PC-3 12.1 µM | SK-MEL-28 28.8 µM | SK-MEL-2 22.6 µM | SK-OV-3 24 µM | SNB-19 33 µM | SW-620 28.6 µM | U-251 14.3 µM

COC(=O)CCC(C)C1CCC2C3CCC4CC5CCC4(C)C3(O5)C(Br)C(Br)C12C (stereo unspecified)
inactive: K562 > 100 µM | LOX IMVI > 100 µM | NCI-H23 > 100 µM | OVCAR-8 > 100 µM | PC-3 > 100 µM | SF-268 > 100 µM | SF-539 85.1 µM | SK-MEL-28 > 100 µM | SK-MEL-2 > 100 µM | SK-OV-3 > 100 µM | SNB-19 > 100 µM | SW-620 > 100 µM | U-251 > 100 µM

COc1nc2cccc(C(O)c3ccccc3)c2nc1-c1ccccc1 (stereo unspecified)
inactive: CCRF-CEM 3.02 µM | K562 3.81 µM | LOX IMVI 6.24 µM | NCI-H23 3.27 µM | OVCAR-8 8.22 µM | PC-3 4.46 µM | SF-268 9.06 µM | SF-539 2.88 µM | SK-MEL-28 13.4 µM | SK-MEL-2 9.95 µM | SNB-19 4.36 µM | SW-620 3.82 µM | U-251 4.19 µM
